Laboratory results reported in patent US9587005B2 (priority 2010, dated 2017).
Where two headings read alike, the source gives them in different places. *1 amine or outer side, *2 acyl side, *3 side chain or, on linkers, in order; H or OH if unused. Where a SMILES comes first, the peptide text is derived from it. Bridges are numbered along the chain shown (N, C = ends). Where no end group is shown, it is not given here. Side-chain parts run from the residue outwards. [ ]: non-standard residue; d: D form. The star is where a group is joined. Phe(4-NH2) = Nc1ccc(C[C@H](N)C(=O)O)cc1; γGlu = O=C(O)[C@H](CCC(=O)[*:2])N[*:1]; X6 = CCCCCCCCCCCCCCCCC(CC(=O)*)C(=O)O; X3 = CCCCCCCCCCCCCCC(CC(=O)*)C(=O)O; Palmitoyl = CCCCCCCCCCCCCCCC(=O)*; PEG4 = NCCOCCOCCOCCOCCC(=O)O; Aib = CC(C)(N)C(=O)O

Tests used:
Assay type in all cases: cell-based
[1] = target: T1, glucagon receptor (Homo sapiens, UniProt P47871); assay: cAMP induction, firefly luciferase reporter assay in HEK293 cells co-transfected with glucagon receptor; settings: for GR relative activity: Table 3, relative to the activity of the native hormone
T1 construct: expressed in transfected cells; host or cells: HEK293
T1 sequence (P47871 26-477): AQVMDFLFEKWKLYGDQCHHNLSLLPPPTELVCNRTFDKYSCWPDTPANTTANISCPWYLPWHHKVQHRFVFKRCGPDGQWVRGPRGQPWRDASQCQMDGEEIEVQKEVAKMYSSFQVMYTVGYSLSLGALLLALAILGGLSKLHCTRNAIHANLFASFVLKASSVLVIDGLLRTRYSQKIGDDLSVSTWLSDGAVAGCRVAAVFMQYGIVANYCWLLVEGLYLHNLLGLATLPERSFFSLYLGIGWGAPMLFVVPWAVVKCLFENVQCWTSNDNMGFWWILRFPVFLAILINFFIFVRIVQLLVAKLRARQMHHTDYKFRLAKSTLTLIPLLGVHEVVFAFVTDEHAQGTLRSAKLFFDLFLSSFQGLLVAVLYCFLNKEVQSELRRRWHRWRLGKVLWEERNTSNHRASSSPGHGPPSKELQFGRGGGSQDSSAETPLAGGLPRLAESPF
From the text: (§1) This example describes an exemplary method of testing the biological activity of the peptides of the present disclosures, which method involves assaying cAMP synthesis.

[2] = target: T2, GLP-1 receptor (Homo sapiens, UniProt P43220); assay: cAMP induction, firefly luciferase reporter assay in HEK293 cells co-transfected with GLP-1 receptor; settings: for GLP-1R relative activity: Table 3, relative to the activity of the native hormone
T2 construct: expressed in transfected cells; host or cells: HEK293
T2 sequence (P43220 24-463): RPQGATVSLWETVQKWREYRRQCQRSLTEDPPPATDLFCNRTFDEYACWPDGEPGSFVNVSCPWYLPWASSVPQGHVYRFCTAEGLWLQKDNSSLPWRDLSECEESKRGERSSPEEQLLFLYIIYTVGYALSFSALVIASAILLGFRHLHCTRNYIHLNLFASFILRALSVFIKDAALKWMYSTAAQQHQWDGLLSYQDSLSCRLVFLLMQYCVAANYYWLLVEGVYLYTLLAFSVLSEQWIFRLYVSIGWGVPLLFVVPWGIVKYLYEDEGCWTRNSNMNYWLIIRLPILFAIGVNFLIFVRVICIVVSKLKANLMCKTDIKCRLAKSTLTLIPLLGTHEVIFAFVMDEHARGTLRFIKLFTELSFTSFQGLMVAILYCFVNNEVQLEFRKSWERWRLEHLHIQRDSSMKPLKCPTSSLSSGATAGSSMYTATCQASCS
From the text: as §1

[3] = target: T3, GIP receptor (Homo sapiens, UniProt P48546); assay: cAMP induction, firefly luciferase reporter assay in HEK293 cells co-transfected with GIP receptor; settings: for GIPR relative activity: Table 3, relative to the activity of the native hormone
T3 sequence (P48546 22-466): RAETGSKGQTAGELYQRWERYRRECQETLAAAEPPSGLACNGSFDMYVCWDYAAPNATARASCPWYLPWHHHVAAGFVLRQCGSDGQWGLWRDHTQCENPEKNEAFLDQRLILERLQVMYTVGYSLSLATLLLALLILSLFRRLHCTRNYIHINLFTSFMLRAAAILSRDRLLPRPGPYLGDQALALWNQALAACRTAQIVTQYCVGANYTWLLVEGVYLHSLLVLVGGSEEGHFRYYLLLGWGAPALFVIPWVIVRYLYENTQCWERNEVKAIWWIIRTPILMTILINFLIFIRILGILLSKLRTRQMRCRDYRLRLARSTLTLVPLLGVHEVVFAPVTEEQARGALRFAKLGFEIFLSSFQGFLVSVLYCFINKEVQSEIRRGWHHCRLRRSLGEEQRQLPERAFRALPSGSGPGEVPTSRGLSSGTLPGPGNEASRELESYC

[4] = GLP-1 Receptor EC50, Table 10, Example 16
[5] = Table 3, Example 8, read-out: GLP-1R EC50
[6] = Table 3, Example 8, read-out: GIPR EC50

## CCCCCCCCCCCCCCCC(=O)N[C@@H](CCC(=O)Nc1ccc(C[C@H](NC(=O)[C@@H](NC(=O)CNC(=O)[C@H](CCC(N)=O)NC(=O)C(C)(C)NC(=O)[C@@H](N)Cc2c[nH]cn2)[C@@H](C)O)C(=O)N[C@H](C(=O)N[C@@H](CO)C(=O)N[C@@H](CC(=O)O)C(=O)N[C@@H](Cc2ccc(O)cc2)C(=O)N[C@@H](CO)C(=O)N[C@@H](CCCCN)C(=O)N[C@@H](Cc2ccc(O)cc2)C(=O)N[C@@H](CC(C)C)C(=O)N[C@@H](CC(=O)O)C(=O)N[C@@H](CCC(=O)O)C(=O)N[C@@H](CCCNC(=N)N)C(=O)N[C@@H](C)C(=O)N[C@@H](C)C(=O)N[C@@H](CCC(N)=O)C(=O)N[C@@H](CC(=O)O)C(=O)N[C@@H](Cc2ccccc2)C(=O)N[C@H](C(=O)N[C@@H](CCC(N)=O)C(=O)N[C@@H](Cc2c[nH]c3ccccc23)C(=O)N[C@@H](CC(C)C)C(=O)N[C@@H](CC(C)C)C(=O)N[C@@H](CC(=O)O)C(=O)NCC(=O)NCC(=O)N2CCC[C@H]2C(=O)N[C@@H](CO)C(=O)N[C@@H](CO)C(=O)NCC(=O)N[C@@H](C)C(=O)N2CCC[C@H]2C(=O)N2CCC[C@H]2C(=O)N2CCC[C@H]2C(=O)N[C@@H](CO)C(N)=O)C(C)C)[C@@H](C)O)cc1)C(=O)O [SEQ ID NO: 147] (H-H[Aib]QGT[Phe(4-NH2)]([γGlu-Palmitoyl])TSDYSKYLDERAAQDFVQWLLDGGPSSGAPPPS-NH2; N-terminus assumed)
[1]; Glucagon Receptor EC50, Table 10, Example 16
  EC50: 0.246 nM
[2]; [4]
  EC50: 0.004 nM
[3]; Table 10, Example 16, read-out: GIP-1 Receptor EC50
  EC50: 3.13 nM

## H-H[Aib]QGTFTSDYSKYLDERAAQDFVQWLLDGGPSSGAPPPSK([PEG4-γGlu-Palmitoyl])G-NH2 [SEQ ID NO: 158]
[1]; Glucagon Receptor EC50, Table 11, Example 18
  EC50: 0.004 nM
[2]; GLP-1 Receptor EC50, Table 11, Example 18
  EC50: 0.003 nM
[3]; GIP Receptor EC50, Table 11, Example 18
  EC50: 0.005 nM

## Example 8 peptide: Tyr1, AIB2, Glu16/Lys20 lactam, Leu-Ala-Gly 27-29, GPSSGAPPPS 30-39, or a peptide lacking a lactam [mt-219]
[1]
  GR relative activity: 0.65%
[2]; [5]
  EC50: 0.151 nM
[2]
  GLP-1R relative activity: 16.56%
[3]; [6]
  EC50: 6.17 nM
[3]
  GIPR relative activity: .31%

## CCCCCCCCCCCCCCCC(=O)N[C@@H](CCC(=O)N[C@@H](CCC(=O)NCCCC[C@H](NC(=O)[C@H](CC(=O)O)NC(=O)[C@H](CO)NC(=O)[C@@H](NC(=O)[C@H](Cc1ccccc1)NC(=O)[C@@H](NC(=O)CNC(=O)[C@H](CCC(N)=O)NC(=O)C(C)(C)NC(=O)[C@@H](N)Cc1ccc(O)cc1)[C@@H](C)O)[C@@H](C)O)C(=O)N[C@@H](CO)C(=O)N[C@H](C(=O)N[C@@H](Cc1ccc(O)cc1)C(=O)N[C@@H](CC(C)C)C(=O)N[C@@H](CC(=O)O)C(=O)N[C@@H](CCCCN)C(=O)N[C@@H](CCC(N)=O)C(=O)N[C@@H](C)C(=O)N[C@@H](C)C(=O)NC(C)(C)C(=O)N[C@@H](CCC(=O)O)C(=O)N[C@@H](Cc1ccccc1)C(=O)N[C@H](C(=O)N[C@@H](CC(N)=O)C(=O)N[C@@H](Cc1c[nH]c2ccccc12)C(=O)N[C@@H](CC(C)C)C(=O)N[C@@H](CC(C)C)C(=O)N[C@@H](CC(=O)O)C(=O)NCC(=O)NCC(=O)N1CCC[C@H]1C(=O)N[C@@H](CO)C(=O)N[C@@H](CO)C(=O)NCC(=O)N[C@@H](C)C(=O)N1CCC[C@H]1C(=O)N1CCC[C@H]1C(=O)N1CCC[C@H]1C(=O)N[C@@H](CO)C(N)=O)C(C)C)[C@@H](C)CC)C(=O)O)C(=O)O [compound 91] (H-Y[Aib]QGTFTSDK([γGlu-γGlu-Palmitoyl])SIYLDKQAA[Aib]EFVNWLLDGGPSSGAPPPS-NH2; N-terminus assumed)
[1]; EC50 (nM) at Glucagon Receptor, Table 7, Example 13
  EC50: 0.073 nM
[2]; EC50 (nM) at GLP-1 Receptor, Table 7, Example 13
  EC50: 0.008 nM
[3]; EC50 (nM) at GIP Receptor, Table 7, Example 13
  EC50: 0.005 nM

## H[Aib]QGTFTSDYSKYLDERAAQDFVQWLLDGGPSSGAPPPSK(X3)G-NH2 [SEQ ID NO: 176]
[1]
  EC50: 0.012 nM
[2]; [4]
  EC50: 0.014 nM
[3]; GIP-1 Receptor EC50, Table 10, Example 16
  EC50: 0.101 nM

## Example 8 peptide: Tyr1, AIB2, Glu16/Lys20 lactam, Leu-Ala-Gly 27-29, GPSSGAPPPS 30-39, or a peptide lacking a lactam [mt-227] (Y[Aib]QGTFTSDYSIYLDEQAAKEFVNWLLAGGPSSGAPPPSK([Arg-Cys(PEG 40 kDa)-Ac]); lactam 16-20; not fully specified (C-terminus))
[1]
  GR relative activity: 1.27%
[2]
  GLP-1R relative activity: 36.25%
[3]
  GIPR relative activity: 1.29%

## H[Aib]QGTFTSDYSKYLDERAAQDFVQWLLAGGPSSGAPPPSK([γGlu-γGlu-Palmitoyl])G-NH2 [SEQ ID NO: 203]
[1]; EC50 (nM) at glucagon receptor, Table 16, Example 24
  EC50: 0.003 nM
[2]; EC50 (nM) at GLP-1 receptor, Table 16, Example 24
  EC50: 0.001 nM
[3]; EC50 (nM) at GIP receptor, Table 16, Example 24
  EC50: 0.007 nM

## Example 8 peptide: Tyr1, AIB2, Glu16/Lys20 lactam, Leu-Ala-Gly 27-29, GPSSGAPPPS 30-39, or a peptide lacking a lactam [mt-225] (Y[Aib]QGTFTSDYSIYLDEQAAKEFVNWLLAGGPSSGAPPPSK([Ala-Cys(PEG 40 kDa)-Ac]); lactam 16-20; not fully specified (C-terminus))
[1]
  GR relative activity: 1.99%
[2]
  GLP-1R relative activity: 29.59%
[3]
  GIPR relative activity: 0.90%

## CCCCCCCCCCCCCCCCC(CC(=O)Nc1ccc(C[C@H](NC(=O)[C@H](CC(=O)O)NC(=O)[C@H](CO)NC(=O)[C@@H](NC(=O)[C@H](Cc2ccccc2)NC(=O)[C@@H](NC(=O)CNC(=O)[C@H](CCC(=O)O)NC(=O)C(C)(C)NC(=O)[C@@H](N)Cc2ccc(O)cc2)[C@@H](C)O)[C@@H](C)O)C(=O)N[C@@H](CO)C(=O)N[C@H](C(=O)N[C@@H](Cc2ccc(O)cc2)C(=O)N[C@@H](CC(C)C)C(=O)N[C@@H](CC(=O)O)C(=O)N[C@@H](CCCCN)C(=O)N[C@@H](CCC(N)=O)C(=O)N[C@@H](C)C(=O)N[C@@H](C)C(=O)NC(C)(C)C(=O)N[C@@H](CCC(=O)O)C(=O)N[C@@H](Cc2ccccc2)C(=O)N[C@H](C(=O)N[C@@H](CC(N)=O)C(=O)N[C@@H](Cc2c[nH]c3ccccc23)C(=O)N[C@@H](CC(C)C)C(=O)N[C@@H](CC(C)C)C(=O)N[C@@H](C)C(=O)NCC(=O)NCC(=O)N2CCC[C@H]2C(=O)N[C@@H](CO)C(=O)N[C@@H](CO)C(=O)NCC(=O)N[C@@H](C)C(=O)N2CCC[C@H]2C(=O)N2CCC[C@H]2C(=O)N2CCC[C@H]2C(=O)N[C@@H](CO)C(N)=O)C(C)C)[C@@H](C)CC)cc1)C(=O)O (stereo partly drawn) [SEQ ID NO: 144] (H-Y[Aib]EGTFTSD[Phe(4-NH2)](X6)SIYLDKQAA[Aib]EFVNWLLAGGPSSGAPPPS-NH2; N-terminus assumed)
[1]
  EC50: > 0.5 nM
[2]
  EC50: 0.004 nM
[3]
  EC50: 0.013 nM

## Example 8 peptide: Tyr1, AIB2, Glu16/Lys20 lactam, Leu-Ala-Gly 27-29, GPSSGAPPPS 30-39, or a peptide lacking a lactam [mt-226]
[1]
  GR relative activity: 1.56%
[2]; [5]
  EC50: 0.097 nM
[2]
  GLP-1R relative activity: 29.90%
[3]; [6]
  EC50: 1.47 nM
[3]
  GIPR relative activity: 1.16%

## H[Aib]QGTFTSDYSKYLDERAAQDFVQWLLDGGPSSGAPPPS[Phe(4-NH2)](X6)G-NH2 [SEQ ID NO: 146]
[1]
  EC50: 0.007 nM
[2]
  EC50: 0.007 nM
[3]
  EC50: 0.052 nM

## Example 8 peptide: Tyr1, AIB2, Glu16/Lys20 lactam, Leu-Ala-Gly 27-29, GPSSGAPPPS 30-39, or a peptide lacking a lactam [mt-218]
[1]
  GR relative activity: 0.70%
[2]; [5]
  EC50: 0.338 nM
[2]
  GLP-1R relative activity: 7.40%
[3]; [6]
  EC50: 14.3 nM
[3]
  GIPR relative activity: 0.13%
